Reference: patent US9096630B2, “Amphiphilic compositions and methods for preparing and using same” (Yale University, priority 2009, dated 2015)
Read-outs that look alike come from different tables or passages of the source.

What was measured:
[1] = Critical micelle concentration and surface tension measurement (tensiometer, Pt plate); type: physicochemical; details: for CMC / γmin: room temperature; for CMC: DI water; for γmin: DI water (calibrated to 72.7±0.2 mN/m); for behavior in terms of CMC compared with Compound 1 / behavior in terms of interfacial tension (γ) reduction compared with Compound 1: photoisomers of Compound 1
Protocol: To characterize the behavior of the compounds of this invention as surfactants, surface tension can be plotted as a function of concentration and critical micelle concentrations (CMCs) of these surfactants can be calculated. In addition, the hydrophobic-lipophilic balance (HLB) of a surfactant can be calculated according to Griffin's Method. See e.g., Pasquali, R. C.; Taurozzi, M. P.; Bregni, C. Int. J. Pharm.
The CMC for compounds of the invention is determined using known methods in the art.
See, e.g., Pasquali, R. C.; Taurozzi, M. P.; Bregni, C. Int. J. Pharm. […] 14.

[2] = Ross-Miles foam test (ASTM D1173); type: physicochemical; details: for foam enhancing and stabilizing capability compared with Compound 1: photoisomers of Compound 1
[3] = O-alkylglucoside reference, see Rybinski and Hill 1998; cited from earlier work

Structure (SMILES): CCCCCCCCCCC/C=C/C(=O)C[C@@H]1O[C@H](CO)[C@@H](O)[C@H](O)[C@H]1O [Compound 1, (E)-1-((2S,3R,4R,5S,6R)-3,4,5-trihydroxy-6-(hydroxymethyl)tetrahydro-2H-pyran-2-yl)pentadec-3-en-2-one]
- CMC [1]: 0.1 mM
- γmin [1]: 28 mN/m

Structure (SMILES): CCCC1CC(=O)C([C@@H]2O[C@H](CO)[C@@H](O)[C@H](O)[C@H]2O)=CC1CC (stereo partly drawn) [Compound 2, 4-ethyl-5-propyl-2-((2S,3R,4R,5S,6R)-3,4,5-trihydroxy-6-(hydroxymethyl)tetrahydro-2H-pyran-2-yl)cyclohex-2-enone]
- CMC [1]: 52.2 mM
- γmin [1]: 30 mN/m

Structure (SMILES): CCCCCC1CC(=O)C([C@@H]2O[C@H](CO)[C@@H](O)[C@H](O)[C@H]2O)=CC1CCCC (stereo partly drawn) [Compound 3, 4-butyl-5-pentyl-2-((2S,3R,4R,5S,6R)-3,4,5-trihydroxy-6-(hydroxymethyl)tetrahydro-2H-pyran-2-yl)cyclohex-2-enone]
- reduction in Interfacial Tension (IFT) ([1]; comparison of CMC curves between series, FIG. 1): greatest reduction in Interfacial Tension (IFT)
- estimated CMC ([1]; estimated from point of inflection of CMC curve, FIG. 1): very low
- CMC [1]: 0.17 mM
- γmin [1]: 22 mN/m
- foaming properties when combined with SDS ([2]; combined with SDS as a 20% solution, compared with SDS alone): exceeded that of SDS alone
- foam height over 5 minutes when combined with SDS ([2]; combined with SDS as a 20% solution, over 5 minutes): remained unchanged
- excess foam after 5 minutes ([2]; surfactant alone, after 5 minutes, FIG. 2): virtually no excess foam

Structure (SMILES): CCCCC/C=C/C(=O)C[C@@H]1O[C@H](CO)[C@@H](O)[C@H](O)[C@H]1O [Compound 46, (E)-1-((2S,3R,4R,5S,6R)-3,4,5-trihydroxy-6-(hydroxy-methyl)tetrahydro-2H-pyran-2-yl)non-3-en-2-one]
- CMC [1]: 3.9 mM
- γmin [1]: 24 mN/m

Structure (SMILES): CCCCCCCCCC/C=C/CC(=O)C[C@@H]1OC(CO)[C@@H](O)[C@H](O)C1O (some centres unmarked) [Compound 47]
- behavior in terms of CMC compared with Compound 1 [1]: substanitally the same behavior
- behavior in terms of interfacial tension (γ) reduction compared with Compound 1 [1]: substanitally the same behavior
- foam enhancing and stabilizing capability compared with Compound 1 [2]: substanitally the same behavior

Structure (SMILES): CCCCCCCCCC/C=C\CC(=O)C[C@@H]1OC(CO)[C@@H](O)[C@H](O)C1O (some centres unmarked) [Compound 48]
- behavior in terms of CMC compared with Compound 1 [1]: substanitally the same behavior
- behavior in terms of interfacial tension (γ) reduction compared with Compound 1 [1]: substanitally the same behavior
- foam enhancing and stabilizing capability compared with Compound 1 [2]: substanitally the same behavior

Structure (SMILES): CCCCCCCCCCCCO[C@@H]1O[C@H](CO)[C@@H](O)[C@H](O)[C@H]1O [Dodecyl-AG]
- CMC [3]: 0.17 mM
- γmin [3]: 24 mN/m

Structure (SMILES): CCCCCCCCO[C@@H]1O[C@H](CO)[C@@H](O)[C@H](O)[C@H]1O [Octyl-AG]
- CMC [3]: 18.0 mM
- γmin [3]: 24 mN/m
